{"source": "ChEMBL document CHEMBL5678810", "key": {"[1]": {"biological_target": "Leucine-rich repeat serine/threonine-protein kinase 2 (Homo sapiens) (UniProt Q5S007)", "assay": "Inhibition of wildtype GFP-tagged LRRK2 phosphorylation at Ser910 residue (unknown origin) transfected in HEK293 cells upto 3 uM incubated for 90 mins by immunoblot analysis", "type": "cell-based"}, "[2]": {"biological_target": "Activin receptor type-1-like (Homo sapiens) (UniProt P37023)", "sequence (P37023 whole entry, the tested form may be a part)": "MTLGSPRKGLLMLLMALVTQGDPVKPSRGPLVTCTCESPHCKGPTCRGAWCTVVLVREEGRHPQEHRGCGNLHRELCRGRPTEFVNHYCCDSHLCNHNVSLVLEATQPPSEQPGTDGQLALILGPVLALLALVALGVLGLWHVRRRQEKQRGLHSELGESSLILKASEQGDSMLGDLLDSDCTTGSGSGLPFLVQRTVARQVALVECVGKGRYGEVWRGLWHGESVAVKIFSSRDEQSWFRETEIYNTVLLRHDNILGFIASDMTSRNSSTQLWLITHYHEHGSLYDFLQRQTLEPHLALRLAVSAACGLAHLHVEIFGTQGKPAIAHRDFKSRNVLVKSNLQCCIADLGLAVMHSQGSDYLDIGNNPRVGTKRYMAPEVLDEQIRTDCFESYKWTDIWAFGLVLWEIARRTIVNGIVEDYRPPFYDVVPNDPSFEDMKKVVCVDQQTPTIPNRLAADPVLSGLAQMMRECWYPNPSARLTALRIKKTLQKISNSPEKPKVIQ", "assay": "Inhibition of T7 bacteriophage fused human ACVRL1 at 10 uM by KINOMEscan analysis relative to control"}, "[3]": {"biological_target": "Mitogen-activated protein kinase 1 (Homo sapiens) (UniProt P28482)", "assay": "Inhibition of T7 bacteriophage fused human ERK2 at 10 uM by KINOMEscan analysis relative to control; values are per cent of control"}, "[4]": {"biological_target": "cGMP-dependent protein kinase 2 (Homo sapiens) (UniProt Q13237)", "assay": "Inhibition of T7 bacteriophage fused human PRKG2 at 10 uM by KINOMEscan analysis relative to control"}, "[5]": {"biological_target": "Receptor-interacting serine/threonine-protein kinase 1 (Homo sapiens) (UniProt Q13546)", "assay": "Inhibition of T7 bacteriophage fused human RIPK1 at 10 uM by KINOMEscan analysis relative to control"}, "[6]": {"tested_on": "Phosphatidylinositol 4,5-bisphosphate 3-kinase catalytic subunit alpha isoform (Homo sapiens), P42336 [E545K]", "assay": "Inhibition of T7 bacteriophage fused human PIK3CA E545K mutant at 10 uM by KINOMEscan analysis relative to control"}, "[7]": {"biological_target": "Serine/threonine-protein kinase DCLK1 (Homo sapiens) (UniProt O15075)", "assay": "Inhibition of T7 bacteriophage fused human DCAMKL1 at 10 uM by KINOMEscan analysis relative to control; values are per cent of control"}, "[8]": {"biological_target": "Ephrin type-A receptor 5 (Homo sapiens) (UniProt P54756)", "assay": "Inhibition of T7 bacteriophage fused human EPHA5 at 10 uM by KINOMEscan analysis relative to control; values are per cent of control"}, "[9]": {"biological_target": "Myosin light chain kinase (Homo sapiens) (UniProt Q32MK0)", "assay": "Inhibition of T7 bacteriophage fused human MLCK at 10 uM by KINOMEscan analysis relative to control"}, "[10]": {"tested_on": "Receptor-type tyrosine-protein kinase FLT3 (Homo sapiens), P36888 [UNDEFINED MUTATION]", "sequence (P36888 whole entry, looked up, change not shown, the tested form may be a part)": "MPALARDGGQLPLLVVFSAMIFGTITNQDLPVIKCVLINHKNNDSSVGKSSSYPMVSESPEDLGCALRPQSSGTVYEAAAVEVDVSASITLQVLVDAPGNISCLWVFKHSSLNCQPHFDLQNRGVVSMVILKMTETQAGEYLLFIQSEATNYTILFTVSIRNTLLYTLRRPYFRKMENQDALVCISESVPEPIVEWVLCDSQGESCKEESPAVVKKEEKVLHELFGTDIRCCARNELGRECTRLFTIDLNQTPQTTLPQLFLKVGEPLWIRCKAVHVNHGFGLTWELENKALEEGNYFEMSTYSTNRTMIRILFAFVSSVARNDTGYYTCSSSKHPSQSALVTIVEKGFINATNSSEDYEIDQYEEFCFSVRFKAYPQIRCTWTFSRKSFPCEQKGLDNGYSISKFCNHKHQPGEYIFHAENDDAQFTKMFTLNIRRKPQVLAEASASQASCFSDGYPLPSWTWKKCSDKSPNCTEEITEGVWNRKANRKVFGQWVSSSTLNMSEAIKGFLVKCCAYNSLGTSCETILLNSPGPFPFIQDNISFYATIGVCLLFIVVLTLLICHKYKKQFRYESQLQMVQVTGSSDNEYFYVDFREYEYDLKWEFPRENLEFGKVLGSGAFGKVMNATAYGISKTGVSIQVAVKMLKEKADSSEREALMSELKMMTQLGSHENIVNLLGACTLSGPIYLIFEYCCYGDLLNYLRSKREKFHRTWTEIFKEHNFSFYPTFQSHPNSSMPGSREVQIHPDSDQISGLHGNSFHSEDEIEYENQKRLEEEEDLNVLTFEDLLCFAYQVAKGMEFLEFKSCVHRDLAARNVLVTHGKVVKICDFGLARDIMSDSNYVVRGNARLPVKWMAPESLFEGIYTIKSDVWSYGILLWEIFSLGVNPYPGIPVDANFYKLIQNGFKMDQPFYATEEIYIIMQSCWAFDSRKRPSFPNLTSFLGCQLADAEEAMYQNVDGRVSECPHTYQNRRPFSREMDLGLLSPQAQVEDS", "assay": "Inhibition of T7 bacteriophage fused human FLT3 ITD mutant at 10 uM by KINOMEscan analysis relative to control"}, "[11]": {"biological_target": "Mitogen-activated protein kinase 10 (Homo sapiens) (UniProt P53779)", "assay": "Inhibition of T7 bacteriophage fused human JNK3 at 10 uM by KINOMEscan analysis relative to control; values are per cent of control"}, "[12]": {"biological_target": "Death-associated protein kinase 1 (Homo sapiens) (UniProt P53355)", "sequence (P53355 whole entry, looked up, the tested form may be a part)": "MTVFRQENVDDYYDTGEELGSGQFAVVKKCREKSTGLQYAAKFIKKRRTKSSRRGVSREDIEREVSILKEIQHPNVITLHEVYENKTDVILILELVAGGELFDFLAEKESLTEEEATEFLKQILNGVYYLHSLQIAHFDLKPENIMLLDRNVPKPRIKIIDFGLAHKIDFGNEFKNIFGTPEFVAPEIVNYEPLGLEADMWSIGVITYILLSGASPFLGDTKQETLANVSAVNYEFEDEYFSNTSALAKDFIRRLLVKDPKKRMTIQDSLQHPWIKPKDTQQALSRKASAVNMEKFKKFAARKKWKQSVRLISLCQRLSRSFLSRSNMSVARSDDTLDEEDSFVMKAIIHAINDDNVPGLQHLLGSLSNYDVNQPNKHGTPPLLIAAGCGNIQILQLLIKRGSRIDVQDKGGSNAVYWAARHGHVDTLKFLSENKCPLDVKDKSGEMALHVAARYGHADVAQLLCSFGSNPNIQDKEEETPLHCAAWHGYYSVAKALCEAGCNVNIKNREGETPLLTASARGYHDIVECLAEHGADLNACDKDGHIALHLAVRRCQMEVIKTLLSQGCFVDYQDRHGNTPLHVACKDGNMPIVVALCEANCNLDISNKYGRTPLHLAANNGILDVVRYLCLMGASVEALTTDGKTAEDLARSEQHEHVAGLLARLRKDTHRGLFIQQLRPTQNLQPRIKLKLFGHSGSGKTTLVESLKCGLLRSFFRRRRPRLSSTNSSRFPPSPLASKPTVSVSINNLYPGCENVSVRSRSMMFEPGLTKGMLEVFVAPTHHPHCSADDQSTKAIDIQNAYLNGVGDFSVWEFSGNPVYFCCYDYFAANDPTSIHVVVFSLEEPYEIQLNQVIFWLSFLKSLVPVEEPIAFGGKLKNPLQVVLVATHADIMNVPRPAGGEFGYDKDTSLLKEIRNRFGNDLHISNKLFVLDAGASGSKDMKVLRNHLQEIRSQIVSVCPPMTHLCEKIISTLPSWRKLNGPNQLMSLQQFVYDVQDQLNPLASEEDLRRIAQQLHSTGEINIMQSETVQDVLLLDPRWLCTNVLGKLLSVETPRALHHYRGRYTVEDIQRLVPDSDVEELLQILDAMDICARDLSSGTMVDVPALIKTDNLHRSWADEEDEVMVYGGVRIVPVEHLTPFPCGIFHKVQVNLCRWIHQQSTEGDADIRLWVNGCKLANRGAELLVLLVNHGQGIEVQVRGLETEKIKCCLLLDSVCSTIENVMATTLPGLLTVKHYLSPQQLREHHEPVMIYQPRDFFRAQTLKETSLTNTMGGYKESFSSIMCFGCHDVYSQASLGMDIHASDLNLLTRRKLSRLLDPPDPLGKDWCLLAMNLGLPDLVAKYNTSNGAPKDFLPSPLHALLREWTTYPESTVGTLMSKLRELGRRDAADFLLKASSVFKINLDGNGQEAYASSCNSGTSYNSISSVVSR", "assay": "Inhibition of T7 bacteriophage fused human DAPK1 at 10 uM by KINOMEscan analysis relative to control; values are per cent of control"}, "[13]": {"biological_target": "Serine/threonine-protein kinase Nek2 (Homo sapiens) (UniProt P51955)", "assay": "Inhibition of T7 bacteriophage fused human NEK2 at 10 uM by KINOMEscan analysis relative to control"}, "[14]": {"biological_target": "Mitogen-activated protein kinase 3 (Homo sapiens) (UniProt P27361)", "sequence (P27361 whole entry, the tested form may be a part)": "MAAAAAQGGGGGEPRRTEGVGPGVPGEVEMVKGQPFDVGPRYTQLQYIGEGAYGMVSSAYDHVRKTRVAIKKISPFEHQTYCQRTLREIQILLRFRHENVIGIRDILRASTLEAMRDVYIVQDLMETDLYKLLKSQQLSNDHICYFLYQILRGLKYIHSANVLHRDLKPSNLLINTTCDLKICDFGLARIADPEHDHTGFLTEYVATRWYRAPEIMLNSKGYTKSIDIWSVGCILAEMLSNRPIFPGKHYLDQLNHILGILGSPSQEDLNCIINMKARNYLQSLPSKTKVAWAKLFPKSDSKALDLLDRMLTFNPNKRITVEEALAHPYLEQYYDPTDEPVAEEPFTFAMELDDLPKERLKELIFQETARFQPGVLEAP", "assay": "Inhibition of T7 bacteriophage fused human ERK1 at 10 uM by KINOMEscan analysis relative to control"}, "[15]": {"biological_target": "Ephrin type-B receptor 1 (Homo sapiens) (UniProt P54762)", "assay": "Inhibition of T7 bacteriophage fused human EPHB1 at 10 uM by KINOMEscan analysis relative to control; values are per cent of control"}, "[16]": {"biological_target": "MAP kinase-interacting serine/threonine-protein kinase 1 (Homo sapiens) (UniProt Q9BUB5)", "assay": "Inhibition of T7 bacteriophage fused human MKNK1 at 10 uM by KINOMEscan analysis relative to control; values are per cent of control"}, "[17]": {"biological_target": "Cyclin-dependent kinase 3 (Homo sapiens) (UniProt Q00526)", "assay": "Inhibition of T7 bacteriophage fused human CDK3 at 10 uM by KINOMEscan analysis relative to control"}, "[18]": {"tested_on": "Phosphatidylinositol 4,5-bisphosphate 3-kinase catalytic subunit alpha isoform (Homo sapiens), P42336 [Q546K]", "assay": "Inhibition of T7 bacteriophage fused human PIK3CA Q546K mutant at 10 uM by KINOMEscan analysis relative to control"}, "[19]": {"biological_target": "ALK tyrosine kinase receptor (Homo sapiens) (UniProt Q9UM73)", "assay": "Inhibition of T7 bacteriophage fused human ALK at 10 uM by KINOMEscan analysis relative to control"}, "[20]": {"biological_target": "Insulin-like growth factor 1 receptor (Homo sapiens) (UniProt P08069)", "assay": "Inhibition of T7 bacteriophage fused human IGF1R at 10 uM by KINOMEscan analysis relative to control; values are per cent of control"}, "[21]": {"biological_target": "Serine/threonine-protein kinase MARK1 (Homo sapiens) (UniProt Q9P0L2)", "assay": "Inhibition of T7 bacteriophage fused human MARK1 at 10 uM by KINOMEscan analysis relative to control; values are per cent of control"}, "[22]": {"biological_target": "Receptor tyrosine-protein kinase erbB-4 (Homo sapiens) (UniProt Q15303)", "assay": "Inhibition of T7 bacteriophage fused human ERBB4 at 10 uM by KINOMEscan analysis relative to control"}, "[23]": {"biological_target": "Dual specificity mitogen-activated protein kinase kinase 3 (Homo sapiens) (UniProt P46734)", "sequence (P46734 whole entry, the tested form may be a part)": "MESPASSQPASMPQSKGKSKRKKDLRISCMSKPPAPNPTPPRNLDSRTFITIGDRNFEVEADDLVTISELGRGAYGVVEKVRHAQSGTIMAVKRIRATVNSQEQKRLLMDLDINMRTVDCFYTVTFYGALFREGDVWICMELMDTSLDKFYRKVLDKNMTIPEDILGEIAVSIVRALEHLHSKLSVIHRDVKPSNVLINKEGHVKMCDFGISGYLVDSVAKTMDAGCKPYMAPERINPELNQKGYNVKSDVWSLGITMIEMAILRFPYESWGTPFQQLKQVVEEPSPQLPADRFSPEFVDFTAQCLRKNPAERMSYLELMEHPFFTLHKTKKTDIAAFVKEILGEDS", "assay": "Inhibition of T7 bacteriophage fused human MEK3 at 10 uM by KINOMEscan analysis relative to control; values are per cent of control"}, "[24]": {"biological_target": "Protein-tyrosine kinase 2-beta (Homo sapiens) (UniProt Q14289)", "assay": "Inhibition of T7 bacteriophage fused human PYK2 at 10 uM by KINOMEscan analysis relative to control"}, "[25]": {"biological_target": "Ribosomal protein S6 kinase alpha-6 (Homo sapiens) (UniProt Q9UK32)", "assay": "Inhibition of T7 bacteriophage fused human C-terminal RSK4 Kinase domain-2 at 10 uM by KINOMEscan analysis relative to control"}, "[26]": {"biological_target": "Ephrin type-B receptor 3 (Homo sapiens) (UniProt P54753)", "sequence (P54753 whole entry, the tested form may be a part)": "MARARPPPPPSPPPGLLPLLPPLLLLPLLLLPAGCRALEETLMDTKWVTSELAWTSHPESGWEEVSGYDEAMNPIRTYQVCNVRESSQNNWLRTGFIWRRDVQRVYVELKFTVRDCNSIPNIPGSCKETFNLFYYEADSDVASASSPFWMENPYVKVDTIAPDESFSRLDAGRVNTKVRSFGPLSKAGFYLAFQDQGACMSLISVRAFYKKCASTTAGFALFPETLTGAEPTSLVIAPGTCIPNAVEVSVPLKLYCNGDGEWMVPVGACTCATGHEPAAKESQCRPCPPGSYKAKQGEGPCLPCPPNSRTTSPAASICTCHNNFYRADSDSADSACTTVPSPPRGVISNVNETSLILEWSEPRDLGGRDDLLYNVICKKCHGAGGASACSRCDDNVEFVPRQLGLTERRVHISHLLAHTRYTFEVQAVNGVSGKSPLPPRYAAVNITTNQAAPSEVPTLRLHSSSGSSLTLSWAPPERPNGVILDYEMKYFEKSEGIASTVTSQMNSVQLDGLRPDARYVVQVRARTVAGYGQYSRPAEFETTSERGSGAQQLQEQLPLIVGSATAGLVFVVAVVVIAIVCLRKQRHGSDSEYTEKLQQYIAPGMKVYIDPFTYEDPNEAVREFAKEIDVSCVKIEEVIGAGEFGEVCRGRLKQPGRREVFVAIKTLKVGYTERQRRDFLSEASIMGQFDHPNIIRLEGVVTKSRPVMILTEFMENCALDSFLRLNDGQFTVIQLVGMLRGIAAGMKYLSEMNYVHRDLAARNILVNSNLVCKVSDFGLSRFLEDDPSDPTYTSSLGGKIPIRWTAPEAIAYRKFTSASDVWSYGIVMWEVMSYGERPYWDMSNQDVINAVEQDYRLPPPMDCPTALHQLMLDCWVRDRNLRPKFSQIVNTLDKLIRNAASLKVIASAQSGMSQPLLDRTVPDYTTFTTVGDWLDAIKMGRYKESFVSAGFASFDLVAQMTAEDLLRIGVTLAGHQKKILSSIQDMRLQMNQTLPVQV", "assay": "Inhibition of T7 bacteriophage fused human EPHB3 at 10 uM by KINOMEscan analysis relative to control"}, "[27]": {"biological_target": "Serine/threonine-protein kinase pim-1 (Homo sapiens) (UniProt P11309)", "sequence (P11309 whole entry, looked up, the tested form may be a part)": "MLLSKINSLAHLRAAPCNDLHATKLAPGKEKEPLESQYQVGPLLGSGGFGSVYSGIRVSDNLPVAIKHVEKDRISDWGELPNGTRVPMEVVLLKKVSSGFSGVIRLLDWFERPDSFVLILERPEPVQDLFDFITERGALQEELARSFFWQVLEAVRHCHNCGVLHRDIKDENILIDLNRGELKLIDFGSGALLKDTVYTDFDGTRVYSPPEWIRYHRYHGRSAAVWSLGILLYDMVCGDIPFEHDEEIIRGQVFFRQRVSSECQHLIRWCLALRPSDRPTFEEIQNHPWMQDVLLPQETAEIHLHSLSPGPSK", "assay": "Inhibition of T7 bacteriophage fused human PIM1 at 10 uM by KINOMEscan analysis relative to control"}, "[28]": {"tested_on": "Phosphatidylinositol 4,5-bisphosphate 3-kinase catalytic subunit alpha isoform (Homo sapiens), P42336 [H1047Y]", "assay": "Inhibition of T7 bacteriophage fused human PIK3CA H1047Y mutant at 10 uM by KINOMEscan analysis relative to control"}, "[29]": {"biological_target": "Serine/threonine-protein kinase Nek7 (Homo sapiens) (UniProt Q8TDX7)", "assay": "Inhibition of T7 bacteriophage fused human NEK7 at 10 uM by KINOMEscan analysis relative to control"}}, "note": "Activity calls are given as the source filed them. The calls are words filed in the database; no cut-off is given here.", "data": [{"smiles": "CCOc1cc(C(=O)N2CCC(N3CCN(C)CC3)CC2)ccc1Nc1ncc2c(n1)N(C1CCCC1)c1ccccc1C(=O)N2C", "values": [{"measurement": "inhibition", "setting": "[1]", "value": "inactive"}]}, {"smiles": "COc1cc(N2CCC(N3CCN(C)CC3)CC2)ccc1Nc1ncc2c(n1)N(C)c1ccccc1C(=O)N2C", "values": [{"measurement": "inhibition", "setting": "[2]", "value": 100, "unit": "%"}, {"measurement": "residual activity", "setting": "[3]", "value": 85, "unit": "%"}, {"measurement": "inhibition", "setting": "[4]", "value": 74, "unit": "%"}, {"measurement": "inhibition", "setting": "[5]", "value": 99, "unit": "%"}, {"measurement": "inhibition", "setting": "[6]", "value": 100, "unit": "%"}, {"measurement": "residual activity", "setting": "[7]", "value": 4.2, "unit": "%"}, {"measurement": "residual activity", "setting": "[8]", "value": 95, "unit": "%"}, {"measurement": "inhibition", "setting": "[9]", "value": 100, "unit": "%"}, {"measurement": "inhibition", "setting": "[10]", "value": 100, "unit": "%"}, {"measurement": "residual activity", "setting": "[11]", "value": 77, "unit": "%"}, {"measurement": "residual activity", "setting": "[12]", "value": 73, "unit": "%"}, {"measurement": "inhibition", "setting": "[13]", "value": 100, "unit": "%"}, {"measurement": "inhibition", "setting": "[14]", "value": 100, "unit": "%"}, {"measurement": "residual activity", "setting": "[15]", "value": 98, "unit": "%"}, {"measurement": "residual activity", "setting": "[16]", "value": 50, "unit": "%"}, {"measurement": "inhibition", "setting": "[17]", "value": 100, "unit": "%"}, {"measurement": "inhibition", "setting": "[18]", "value": 91, "unit": "%"}, {"measurement": "inhibition", "setting": "[19]", "value": 13, "unit": "%"}, {"measurement": "residual activity", "setting": "[20]", "value": 96, "unit": "%"}, {"measurement": "residual activity", "setting": "[21]", "value": 87, "unit": "%"}, {"measurement": "inhibition", "setting": "[22]", "value": 100, "unit": "%"}, {"measurement": "residual activity", "setting": "[23]", "value": 75, "unit": "%"}, {"measurement": "inhibition", "setting": "[24]", "value": 78, "unit": "%"}, {"measurement": "inhibition", "setting": "[25]", "value": 2.2, "unit": "%"}, {"measurement": "inhibition", "setting": "[26]", "value": 100, "unit": "%"}, {"measurement": "inhibition", "setting": "[27]", "value": 100, "unit": "%"}, {"measurement": "inhibition", "setting": "[28]", "value": 71, "unit": "%"}, {"measurement": "inhibition", "setting": "[29]", "value": 100, "unit": "%"}]}]}
